Literature values in patent publication US8865753B2, “Compounds as cannabinoid receptor ligands” (priority 2007, dated 2014).

Tests used:
animal models = animal models of acute thermal pain, persistent pain, inflammatory pain and neuropathic pain
rat = rat formalin model of persistent pain; Hanus et al. 1999
rodent = rodent models of neuropathic, incisional, and both chronic and acute inflammatory pain
[1] = tested on: apolipoprotein E knockout mice; details: Steffens et al. 2005
microglial = details: in vitro; Ramirez et al. 2005
mice = details: model for post-menopausal osteoporosis, Ralston et al. 2005
osteoclast = details: Ralston et al. 2005

Compound: CN1CCCCC1Cn1cc(C(=O)c2cc([N+](=O)[O-])ccc2I)c2ccccc21 (stereo not drawn) [AM-1241]
- analgesic efficacy (animal models): robust analgesic efficacy

Compound: CCCCCCC(C)(C)c1cc(OC)c([C@@H]2C=C(CO)[C@@H]3C[C@H]2C3(C)C)c(OC)c1 [HU-308]
- antinociceptive response (rat): elicits an antinociceptive response

Compound: COc1ccc2c(c1)c(CCN1CCOCC1)c(C)n2C(=O)c1cccc(Cl)c1Cl [GW405833]
- efficacy in pain models (rodent): efficacious

Compound: SR144528
- inhibition of the effects of THC on atherosclerotic lesions [1]: inhibited
- blockade of the effects of JWH-133 (microglial): blocked
- ovariectomy-induced bone loss (mice): reverse ovariectomy-induced bone loss
- osteoclast activity (osteoclast): inhibit osteoclast activity

Compound: CCCC(C)(C)c1ccc2c(c1)OC(C)(C)[C@@H]1CC=C(C)C[C@@H]21 [JWH-133]
- β-amyloid-induced microglial activation and neurotoxicity (microglial): abrogated

Compound: (−)-Δ^9-Tetrahydrocannabinol [THC]
- progression of atherosclerotic lesions ([1]; low doses): slowed the progression of atherosclerotic lesions
